# Reference: publication PMC4876051 (Clinical pharmacokinetics, 2016)
# Where two headings read alike, the source gives them in different places.
# Key:
# MATE1 [1] = target: T1, MATE1 (Homo sapiens, UniProt Q96FL8); conditions: MATE1 vs OCT2
# [2] = for Maximal concentration of unbound famotidine in plasma ([I], Cmax,u): healthy volunteers n=12, oral famotidine 160 to 200 mg doses
# [3] = test system: creatinine (an endogenous substrate of MATE1); conditions: 12h after famotidine (200 mg) alone vs pre-famotidine
# creatinine plasma levels = conditions: with famotidine
# [4] = target: plasma membrane monoamine transporter (PMAT, SLC29A4) (Homo sapiens, UniProt Q7RTT9); conditions: Supplemental Fig. 7
# Sequence of plasma membrane monoamine transporter (PMAT, SLC29A4) (Q7RTT9 whole entry): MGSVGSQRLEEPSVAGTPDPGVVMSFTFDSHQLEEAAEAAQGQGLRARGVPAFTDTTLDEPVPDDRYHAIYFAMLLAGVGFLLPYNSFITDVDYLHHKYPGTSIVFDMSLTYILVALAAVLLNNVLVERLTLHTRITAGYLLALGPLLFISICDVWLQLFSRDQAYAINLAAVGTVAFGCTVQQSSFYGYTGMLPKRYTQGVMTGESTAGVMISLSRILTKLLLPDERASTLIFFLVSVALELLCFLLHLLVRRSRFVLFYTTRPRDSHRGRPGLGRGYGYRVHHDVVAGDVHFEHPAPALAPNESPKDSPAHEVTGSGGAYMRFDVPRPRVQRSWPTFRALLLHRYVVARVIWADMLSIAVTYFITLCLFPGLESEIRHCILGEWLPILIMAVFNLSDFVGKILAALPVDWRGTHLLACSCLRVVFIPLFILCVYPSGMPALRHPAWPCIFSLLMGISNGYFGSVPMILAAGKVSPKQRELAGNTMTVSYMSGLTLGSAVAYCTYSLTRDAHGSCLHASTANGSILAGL
# MATE1 [5] = target: T1, MATE1; conditions: overexpressing cell line; Supplemental Fig. 4
# MATE2 [6] = target: T2, MATE2 (Homo sapiens, UniProt Q86VL8); conditions: overexpressing cell line; Supplemental Fig. 4
# T2 sequence (Q86VL8 whole entry): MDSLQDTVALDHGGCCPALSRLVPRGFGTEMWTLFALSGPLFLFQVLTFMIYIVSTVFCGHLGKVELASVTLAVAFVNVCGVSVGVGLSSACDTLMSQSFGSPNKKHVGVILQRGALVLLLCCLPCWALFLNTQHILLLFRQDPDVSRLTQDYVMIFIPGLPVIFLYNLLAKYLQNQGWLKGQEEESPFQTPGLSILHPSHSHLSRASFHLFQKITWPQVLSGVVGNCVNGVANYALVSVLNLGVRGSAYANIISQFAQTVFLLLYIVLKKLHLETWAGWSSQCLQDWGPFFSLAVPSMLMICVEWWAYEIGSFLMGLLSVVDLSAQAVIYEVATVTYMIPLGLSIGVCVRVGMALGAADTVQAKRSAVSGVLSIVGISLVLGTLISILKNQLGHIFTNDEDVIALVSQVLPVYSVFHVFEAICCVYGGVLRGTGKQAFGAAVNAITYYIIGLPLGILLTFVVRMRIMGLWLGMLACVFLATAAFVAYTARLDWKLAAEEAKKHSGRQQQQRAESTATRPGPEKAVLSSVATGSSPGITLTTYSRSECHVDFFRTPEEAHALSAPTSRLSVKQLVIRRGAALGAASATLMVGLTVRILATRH
# OCT1 [7] = target: T3, OCT1 (Homo sapiens, UniProt O15245); conditions: overexpressing cell line; Supplemental Fig. 4
# T3 sequence (O15245 whole entry): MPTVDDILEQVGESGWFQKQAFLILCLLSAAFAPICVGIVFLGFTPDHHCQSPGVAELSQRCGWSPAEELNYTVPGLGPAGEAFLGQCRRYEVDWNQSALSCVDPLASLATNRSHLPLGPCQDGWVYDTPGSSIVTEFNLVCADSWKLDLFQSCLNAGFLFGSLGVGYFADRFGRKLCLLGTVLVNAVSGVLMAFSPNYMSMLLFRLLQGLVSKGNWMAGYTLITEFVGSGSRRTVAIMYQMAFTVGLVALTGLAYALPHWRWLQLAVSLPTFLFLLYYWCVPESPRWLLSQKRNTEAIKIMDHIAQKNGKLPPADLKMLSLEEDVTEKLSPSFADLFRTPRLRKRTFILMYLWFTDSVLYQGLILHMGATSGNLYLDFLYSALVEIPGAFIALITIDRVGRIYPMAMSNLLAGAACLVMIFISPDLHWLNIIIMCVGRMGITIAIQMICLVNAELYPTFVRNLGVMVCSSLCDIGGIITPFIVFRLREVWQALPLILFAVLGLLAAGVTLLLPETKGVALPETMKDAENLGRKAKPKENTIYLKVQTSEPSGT
# OCT2 [8] = target: T4, OCT2 (Homo sapiens, UniProt O15244); conditions: overexpressing cell line; Supplemental Fig. 4
# T4 sequence (O15244 whole entry): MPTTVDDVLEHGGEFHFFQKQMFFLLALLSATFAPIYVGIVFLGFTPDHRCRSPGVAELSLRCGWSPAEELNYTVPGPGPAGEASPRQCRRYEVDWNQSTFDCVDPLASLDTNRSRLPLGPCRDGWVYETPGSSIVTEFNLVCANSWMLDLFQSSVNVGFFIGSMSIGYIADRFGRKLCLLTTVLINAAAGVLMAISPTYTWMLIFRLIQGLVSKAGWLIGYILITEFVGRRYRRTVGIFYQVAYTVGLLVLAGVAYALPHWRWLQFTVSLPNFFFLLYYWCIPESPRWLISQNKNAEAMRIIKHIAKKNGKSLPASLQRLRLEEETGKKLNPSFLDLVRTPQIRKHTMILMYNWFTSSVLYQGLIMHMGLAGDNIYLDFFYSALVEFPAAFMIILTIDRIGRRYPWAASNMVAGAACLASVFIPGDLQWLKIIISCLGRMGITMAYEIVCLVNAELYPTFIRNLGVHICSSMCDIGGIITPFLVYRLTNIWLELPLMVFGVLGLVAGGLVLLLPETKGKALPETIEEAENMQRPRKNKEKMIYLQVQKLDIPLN
# clinical [9] = conditions: human, plasma and urine, oral, 200 mg
# MATE1 [10] = target: T1, MATE1; assay: cell-based
# MATE2 [11] = target: T2, MATE2; assay: cell-based
# OCT1 [12] = target: T3, OCT1; assay: cell-based
# OCT2 [13] = target: T4, OCT2; assay: cell-based
# [14] = cited from earlier work
# [15] = cited from earlier work; remark: listed apart in the source
# [16] = Tolerability in the clinical study; conditions: twelve healthy volunteers; famotidine Cmax,u about 1.0 μM
# plasma glucose = assay: Oral glucose tolerance test; set-up: AUCglu,0.5, GMR (90%CI), metformin vs baseline / AUCglu,3, GMR (90%CI), metformin vs baseline: unit not given beside the values
# [17] = cited from earlier work; remark: listed apart in the source
# clinical [18] = conditions: human
# [19] = population PK model, twelve healthy volunteers
# [20] = glucose AUC 0 to 0.5h after 75 g glucose, n=12
# [21] = glucose AUC 0 to 3h after 75 g glucose, n=12
# [22] = metformin vs baseline (no drug)
# T1 sequence (Q96FL8 whole entry): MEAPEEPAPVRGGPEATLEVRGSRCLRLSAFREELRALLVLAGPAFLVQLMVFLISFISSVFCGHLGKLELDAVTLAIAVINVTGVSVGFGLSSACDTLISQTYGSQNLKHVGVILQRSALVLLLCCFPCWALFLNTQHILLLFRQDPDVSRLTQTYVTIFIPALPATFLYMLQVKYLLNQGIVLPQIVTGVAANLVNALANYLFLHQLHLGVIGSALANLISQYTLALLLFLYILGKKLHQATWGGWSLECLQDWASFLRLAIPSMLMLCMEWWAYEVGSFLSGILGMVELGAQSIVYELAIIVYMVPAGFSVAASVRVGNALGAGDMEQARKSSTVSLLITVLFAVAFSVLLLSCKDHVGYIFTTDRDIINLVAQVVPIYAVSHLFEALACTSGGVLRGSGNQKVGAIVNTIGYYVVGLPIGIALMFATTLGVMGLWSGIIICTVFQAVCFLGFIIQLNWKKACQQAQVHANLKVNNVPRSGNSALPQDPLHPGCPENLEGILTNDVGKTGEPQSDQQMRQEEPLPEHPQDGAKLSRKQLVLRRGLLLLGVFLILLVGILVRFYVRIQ
smiles,measurement,setting,value
"NC(N)=Nc1nc(CSCCC(N)=NS(N)(=O)=O)cs1 [Famotidine, famotidine]",Selectivity of inhibition of metformin transport for MATE1 over OCT2,MATE1 [1],over 200 fold
same,"Maximal concentration of unbound famotidine in plasma ([I], Cmax,u)",[2],1000 nM
same,"Maximal concentration of unbound famotidine in plasma ([I], Cmax,u)",[2]; listed as famotidine,1000 ± 64 nM
same,BSV-CL (between subject variability),"[2]; population PK model, (R.S.E)",6.4% (25%)
same,BSV-F (between subject variability),"[2]; population PK model, (R.S.E)",26% (53%)
same,BSV-Lagtime (between subject variability),"[2]; population PK model, (R.S.E)",77% (99%)
same,"CL/F, population estimate (R.S.E)",[2]; [19],116 (7.2%) L/h
same,"Lag time, population estimate (R.S.E)",[2]; [19],0.27 (32%) h
same,"V/F, population estimate (R.S.E)",[2]; [19],715 (6.0%) L
same,"ka, population estimate (R.S.E)",[2]; [19],1.14 (11%) h^−1
same,Creatinine concentrations in plasma,[3],significantly higher
same,"BSV-Baseline, creatinine model (R.S.E.)",creatinine plasma levels,18 (19%)
same,"BSV-Phase Shift, creatinine model (R.S.E.)",creatinine plasma levels,2.7 (89%)
same,"Creatinine plasma Amplitude 1, typical value (R.S.E.)",creatinine plasma levels; diurnal rhythm model,1.15 (49%) mg/L
same,"Creatinine plasma Phase Shift 1, typical value (R.S.E.)",creatinine plasma levels; diurnal rhythm model,2.37 (2.6%) mg/L
same,"Creatinine plasma Baseline, typical value (R.S.E.)",creatinine plasma levels; twelve healthy volunteers,8.07 (5.5%) mg/L
same,Inhibition of metformin transport by PMAT,[4],potent inhibitor
same,Substrate of MATE1,MATE1 [5],unequivocal substrate
same,Substrate of MATE2,MATE2 [6],unequivocal substrate
same,Substrate of OCT1,OCT1 [7],unequivocal substrate
same,Substrate of OCT2,OCT2 [8],unequivocal substrate
same,CL renal,clinical [9],290 ± 32 mL/min
same,IC50,MATE1 [10],0.25 µM
same,IC50,MATE2 [11],2.5 µM
same,IC50,OCT1 [12],19 µM
same,IC50,OCT2 [13],66 µM
same,Bound to plasma proteins,[14],approximately 20%
same,Eliminated by metabolic route,[15],30–35%
same,Eliminated by renal route,[15],65–70%
same,Tolerability during co-administration with metformin,[16],well tolerated
same,Effect of famotidine alone on glucose AUC,"plasma glucose; OGTT, data not shown",no significant effect
"CN(C)C(=N)N=C(N)N [Metformin, metformin]",Ionized in blood and in urine at physiologic pH,[17],> 99%
same,CL renal,"clinical [18]; plasma and urine, oral",767 ± 70 mL/min
same,AUC(0-inf),"clinical [18]; plasma, oral",14600 ng·h/mL
same,Tmax,"clinical [18]; plasma, po, 1850 mg",2 ± 0.24 h
same,"AUCglu,0.5, mean ± SEM",plasma glucose; [20],55 ± 1.5 mg·h/dL
same,"AUCglu,0.5, median",plasma glucose; [20],55 mg·h/dL
same,"AUCglu,3, mean ± SEM",plasma glucose; [21],356 ± 14 mg·h/dL
same,"AUCglu,3, median",plasma glucose; [21],343 mg·h/dL
same,"AUCglu,0.5, GMR (90%CI), metformin vs baseline",plasma glucose; [22],0.94 (0.90–0.98)
same,"AUCglu,3, GMR (90%CI), metformin vs baseline",plasma glucose; [22],0.99 (0.94–1.04)
same,"AUCglu,0.5, GMR (90%CI), metformin vs baseline","plasma glucose; metformin vs baseline (no drug), listed as metformin",0.94 [0.90–0.98]
